ChEMBL document CHEMBL4130576, “Cephanolides A-J, Cephalotane-Type Diterpenoids from Cephalotaxus sinensis” (J Nat Prod, 2017)
Counter-ions that a name gives are not always drawn.

Tests used:
[1] = tested on: A549; experiment: Cytotoxicity against human A549 cells by SRB assay; assay type: functional, cell-based
[2] = tested on: KB; experiment: Cytotoxicity against human KB cells by SRB assay; assay type: functional, cell-based
[3] = tested on: HL-60; experiment: Cytotoxicity against human HL60 cells by MTT assay; assay type: functional, cell-based
[4] = tested on: HT-29; experiment: Cytotoxicity against human HT-29 cells by SRB assay; assay type: functional, cell-based
[5] = tested on: HL-60; experiment: Cytotoxicity against human HL60 cells assessed as inhibition of cell viability at 10 uM by MTT assay relative to control; assay type: functional
[6] = tested on: KB; experiment: Cytotoxicity against human KB cells assessed as inhibition of cell viability at 10 uM by SRB assay relative to control; assay type: functional
[7] = tested on: A549; experiment: Cytotoxicity against human A549 cells assessed as inhibition of cell viability at 10 uM by SRB assay relative to control; assay type: functional
[8] = tested on: HT-29; experiment: Cytotoxicity against human HT-29 cells assessed as inhibition of cell viability at 10 uM by SRB assay relative to control; assay type: functional

Row | Structure (SMILES) | IC50 [1] [nM] | IC50 [2] [nM] | IC50 [3] [nM] | IC50 [4] [nM] | inhibition at 10 µM [5] [%] | inhibition at 10 µM [6] [%] | inhibition at 10 µM [7] [%] | inhibition at 10 µM [8] [%]
1 | Cc1cc(=O)cc2c3c1[C@@H]1O[C@H]4C5OC(=O)C(CC2)([C@@H]4C)[C@H]3[C@@]51O | 1330 | 964 | 464 | 817 |  |  |  | 
2 | Cc1cc(=O)cc2c3c1C[C@@H]1[C@@H]4C[C@@H](C)C(CC2)(C(=O)O4)[C@]31O | 6090 | 2650 | 1240 | 3220 |  |  |  | 
3 | C[C@@H]1C[C@@H]2OC(=O)C13CC[C@@]14C[C@@H](OC1=O)[C@H](O)[C@](C)(O)C1=C4[C@@H]3[C@@H]2C1 |  |  |  |  | < 50 | < 50 | < 50 | < 50
4 | C=C1[C@H](O)CC[C@@]2(CO)CCC34C(=O)O[C@@H](C[C@H]3C)[C@H]3C[C@H]1[C@@H]2[C@H]34 |  |  |  |  | < 50 | < 50 | < 50 | < 50
5 | Cc1ccc2c3c1C[C@@H]1[C@@H]4C[C@@H](C)C(CC2=O)(C(=O)O4)[C@]31O |  |  |  |  | < 50 | < 50 | < 50 | < 50
6 | C[C@@H]1C[C@@H]2OC(=O)C13CC[C@]14C[C@H](C=C(CO)[C@H]5C[C@H]2[C@H]3[C@@H]51)OC4=O |  |  |  |  | < 50 | < 50 | < 50 | < 50
7 | Cc1cc(=O)cc2c3c1C[C@@H]1[C@@H]4C[C@@H](C)C(C=C2)(C(=O)O4)[C@]31O |  |  |  |  | < 50 | < 50 | < 50 | < 50
8 | Cc1c(O)cc2c3c1[C@@H]1O[C@H]4C5OC(=O)C(CC2)([C@@H]4C)[C@H]3[C@@H]51 |  |  |  |  | < 50 | < 50 | < 50 | < 50
9 | CC1=CCC[C@@]2(CO)CCC34C(=O)O[C@@H](C[C@H]3C)[C@H]3C[C@H]1[C@@H]2[C@H]34 |  |  |  |  | < 50 | < 50 | < 50 | < 50
10 | COC(=O)c1cc(C)c2c3c1C(=O)CC14C(=O)O[C@@H](C[C@H]1C)[C@@H](C2)[C@@]34O |  |  |  |  | < 50 | < 50 | < 50 | < 50
11 | Cc1c(O)cc2c3c1C[C@@H]1[C@@H]4C[C@@H](C)C(CC2)(C(=O)O4)[C@H]31 |  |  |  |  | < 50 | < 50 | < 50 | < 50
12 | CC1=C[C@H]2C[C@]3(CCC45C(=O)O[C@@H](C[C@H]4C)[C@H]4C[C@H]1[C@@H]3[C@H]45)CO2 |  |  |  |  | < 50 | < 50 | < 50 | < 50
13 | COc1cccc2c1C(=O)c1c(O)c3c(c(O)c1C2=O)C[C@@](O)(C(=O)CO)C[C@@H]3O[C@H]1C[C@H](N)[C@H](O)[C@H](C)O1 [DOXORUBICIN HYDROCHLORIDE] |  | 570 | 76 | 559 |  |  |  | 
